What was measured:
[1] = biological target: T1, Human Thyroid Hormone Receptor β1 (TRβ1) (Homo sapiens, UniProt P10828); assay: Transcription activation test of human thyroid hormone receptor β1 (luciferase reporter in 293T cells); format: cell-based; settings: EC50 of transcription activation on TRβ1, 293T cells, luciferase activity after 24 hr; read-out: TRβ
T1 construct: expressed in transfected cells; host or cells: 293T cells
T1 sequence (P10828 1-461): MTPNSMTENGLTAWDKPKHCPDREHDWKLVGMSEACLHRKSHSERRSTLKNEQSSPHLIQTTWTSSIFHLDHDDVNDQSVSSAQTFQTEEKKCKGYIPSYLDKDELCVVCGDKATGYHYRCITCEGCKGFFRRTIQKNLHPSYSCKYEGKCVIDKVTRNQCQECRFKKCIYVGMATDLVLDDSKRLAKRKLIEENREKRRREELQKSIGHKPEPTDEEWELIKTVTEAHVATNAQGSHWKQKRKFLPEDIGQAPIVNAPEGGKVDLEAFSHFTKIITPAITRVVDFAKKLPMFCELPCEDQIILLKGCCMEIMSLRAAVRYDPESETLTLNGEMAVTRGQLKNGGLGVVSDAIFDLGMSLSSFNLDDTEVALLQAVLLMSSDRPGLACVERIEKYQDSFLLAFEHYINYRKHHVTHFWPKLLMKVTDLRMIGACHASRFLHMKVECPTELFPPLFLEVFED
Text: (§1) Transcription Activation Test of Human Thyroid Hormone Receptors α1 (TRα1) and β1 (TRβ1)
(§2) pcDNA3.1 vector (manufactured by Invitrogen) that expresses TRα1 or β1 cloned from human liver-derived cells, and firefly luciferase expression vector pDR4-LuC (manufactured by Stratagene) having a thyroid hormone response sequence to be a reporter were transfected into 293T cells cultured in Dulbecco's modified Eagle medium (DMEM) containing 10% of activated carbon/dextran-treated fetal bovine serum (FBS) by using Lipofectamine2000 (manufactured by Invitrogen). After 16 hr, the cells were plated again in a 96 well plate, and the medium was exchanged with DMEM containing 0.1% activated carbon/dextran-treated FBS. After 3 more hr, a compound diluted with dimethyl sulfoxide solution was added, and the luciferase activity after 24 hr was measured.
(§3) As a positive control, 3,3′,5-triiodo-L-thyronine (T3), which is a biological ligand, was used. The transcription activation action of the compound on TRα1 and TRβ1 was shown by each EC50 value and the maximum luciferase activity value relative to the maximum luciferase activity value of T3 as 100.

[2] = biological target: T2, Human Thyroid Hormone Receptor α1 (TRα1) (Homo sapiens, UniProt P10827); assay: Transcription activation test of human thyroid hormone receptor α1 (luciferase reporter in 293T cells); format: cell-based; settings: ratio TRα/TRβ of the transcription activation EC50 values
T2 construct: expressed in transfected cells; host or cells: 293T cells
T2 sequence (P10827 1-410 isoform P10827-2): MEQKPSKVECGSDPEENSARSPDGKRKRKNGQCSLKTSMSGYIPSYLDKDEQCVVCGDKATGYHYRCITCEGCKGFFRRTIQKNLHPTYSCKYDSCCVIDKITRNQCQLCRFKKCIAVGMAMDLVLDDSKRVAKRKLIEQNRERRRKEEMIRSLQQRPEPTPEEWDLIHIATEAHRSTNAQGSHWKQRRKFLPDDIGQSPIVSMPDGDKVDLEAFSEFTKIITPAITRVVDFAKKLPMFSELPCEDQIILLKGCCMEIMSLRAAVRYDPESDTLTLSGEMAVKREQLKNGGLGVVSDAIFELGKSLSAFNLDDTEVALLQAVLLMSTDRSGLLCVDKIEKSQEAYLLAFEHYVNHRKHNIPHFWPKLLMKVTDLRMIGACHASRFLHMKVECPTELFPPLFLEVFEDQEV
Text: as §1, §2, §3

| Compound | EC50 [1] | selectivity (TRα/TRβ) [2] |
| --- | --- | --- |
| Cc1cc(OCC(=O)O)c(C)c(C)c1Cc1ccc(O)c(C2CCCO2)n1 (stereo not drawn) [Example 6, (4-{[5-hydroxy-6-(tetrahydrofuran-2-yl)pyridin-2-yl]methyl}-2,3,5-trimethylphenoxy)acetic acid] | 50 nM | B (2<(TRα/TRβ)<5) |
| CCCOc1cccc(-c2nc(Cc3c(C)cc(OCc4noc(=O)[nH]4)c(F)c3C)ccc2O)c1 [Example 236, 3-{2-fluoro-4-[5-hydroxy-6-(3-propoxy-phenyl)-pyridin-2-ylmethyl]-3,5-dimethyl-phenoxymethyl}-1,2,4-oxadiazol-5(4H)-one] | 3 nM | A (5<(TRα/TRβ)) |
| Cc1cc(OCc2noc(=O)[nH]2)c(C)c(C)c1Oc1ccc(O)c(C(C)C)n1 [Example 36, 3-({4-[(5-hydroxy-6-isopropylpyridin-2-yl)oxy]-2,3,5-trimethylphenoxy}methyl)-1,2,4-oxadiazol-5(4H)-one] | 3 nM | C (2>(TRα/TRβ)) |
| Cc1cc(OCC(=O)O)c(F)c(C)c1Cc1ccc(O)c(C(C)C)n1 [Example 11, {2-fluoro-4-[(5-hydroxy-6-isopropylpyridin-2-yl)methyl]-3,5-dimethylphenoxy}acetic acid] | 1 nM | B (2<(TRα/TRβ)<5) |
| Cc1cc(NC(=O)CC(=O)O)cc(C)c1Cc1ccc(O)c(C2CCCCC2)n1 [Example 23, 3-({4-[(6-cyclohexyl-5-hydroxypyridin-2-yl)methyl]-3,5-dimethylphenyl}amino)-3-oxopropanoic acid] | 10 nM | A (5<(TRα/TRβ)) |
| Cc1cc(OC(C)C(=O)O)c(C)c(C)c1Cc1ccc(O)c(C2CCCCC2)n1 (stereo not drawn) [Example 15, 2-{4-[(6-cyclohexyl-5-hydroxypyridin-2-yl)methyl]-2,3,5-trimethylphenoxy}propanoic acid] | 9 nM | B (2<(TRα/TRβ)<5) |
| Cc1cc(OCc2noc(=O)[nH]2)c(F)c(C)c1Cc1ccc(O)c(-c2cccc(N3CCCC3)c2)n1 [Example 206, 3-[(2-fluoro-4-{[5-hydroxy-6-(3-pyrrolidin-1-ylphenyl)pyridin-2-yl]methyl}-3,5-dimethylphenoxy)methyl]-1,2,4-oxadiazol-5(4H)-one] | 3 nM | A (5<(TRα/TRβ)) |
| Cc1cc(NC(=O)CC(=O)O)c(F)c(C)c1Cc1ccc(O)c(C2CCCCCC2)n1 [Example 131, 3-({4-[(6-cycloheptyl-5-hydroxypyridin-2-yl)methyl]-2-fluoro-3,5-dimethylphenyl}amino)-3-oxopropanoic acid] | 4 nM | A (5<(TRα/TRβ)) |
| Cc1cc(OCC(=O)O)c(C)c(C)c1Cc1nc(C2CCCCC2)c(O)cc1F [Example 73, {4-[(6-cyclohexyl-3-fluoro-5-hydroxypyridin-2-yl)methyl]-2,3,5-trimethylphenoxy}acetic acid] | 0.2 nM | A (5<(TRα/TRβ)) |
| Cc1cccc(-c2nc(Cc3c(C)cc(OCc4noc(=O)[nH]4)c(F)c3C)ccc2O)c1F [Example 60, 3-[(2-fluoro-4-{[6-(2-fluoro-3-methylphenyl)-5-hydroxypyridin-2-yl]methyl}-3,5-dimethylphenoxy)methyl]-1,2,4-oxadiazol-5(4H)-one] | 0.6 nM | A (5<(TRα/TRβ)) |
| CCc1cc(OCC(=O)O)c(C)c(C)c1Cc1ccc(O)c(-c2cccc(F)c2)n1 [Example 269, (5-ethyl-4-{[6-(3-fluorophenyl)-5-hydroxypyridin-2-yl]methyl}-2,3-dimethylphenoxy)acetic acid] | 0.7 nM | A (5<(TRα/TRβ)) |
| Cc1cc(OC2(C(=O)O)CC2)cc(C)c1Cc1ccc(O)c(C2CCCCC2)n1 [Example 18, 1-{4-[(6-cyclohexyl-5-hydroxypyridin-2-yl)methyl]-3,5-dimethylphenoxy}cyclopropanecarboxylic acid] | 2000 nM | C (2>(TRα/TRβ)) |
| Cc1cc(OCC(=O)O)cc(C)c1Cc1ccc(O)c(C2CCCCC2)n1 [Example 2, {4-[(6-cyclohexyl-5-hydroxypyridin-2-yl)methyl]-3,5-dimethylphenoxy}acetic acid] | 2 nM | B (2<(TRα/TRβ)<5) |
| Cc1cc(NC(=O)CC(=O)O)cc(C)c1Cc1ccc(O)c(-c2ccccc2)n1 [Example 22, 3-({4-[(5-hydroxy-6-phenylpyridin-2-yl)methyl]-3,5-dimethylphenyl}amino)-3-oxopropanoic acid] | 200 nM | A (5<(TRα/TRβ)) |
| Cc1cc(OCc2noc(=O)[nH]2)c(F)c(C)c1Cc1ccc(O)c(-c2ccc(F)c(F)c2F)n1 [Example 191, 3-{2-fluoro-4-[5-hydroxy-6-(2,3,4-trifluoro-phenyl)-pyridin-2-ylmethyl]-3,5-dimethyl-phenoxymethyl}-1,2,4-oxadiazol-5(4H)-one] | 6 nM | A (5<(TRα/TRβ)) |
| Cc1cc(OCc2noc(=O)[nH]2)cc(C)c1Cc1ccc(O)c(C2CCCCC2)n1 [Example 28, 3-({4-[(6-cyclohexyl-5-hydroxypyridin-2-yl)methyl]-3,5-dimethylphenoxy}methyl)-1,2,4-oxadiazol-5(4H)-one] | 0.2 nM | C (2>(TRα/TRβ)) |
| Cc1cc(OCC(=O)O)c(Br)c(C)c1Cc1ccc(O)c(C2CCCCC2)n1 [Example 13, {2-bromo-4-[(6-cyclohexyl-5-hydroxypyridin-2-yl)methyl]-3,5-dimethylphenoxy}acetic acid] | 0.3 nM | A (5<(TRα/TRβ)) |
| Cc1cc(OCC(=O)O)c(C)c(C)c1Cc1ccc(O)c(C2CCCCC2)n1 [Example 7, {4-[(6-cyclohexyl-5-hydroxypyridin-2-yl)methyl]-2,3,5-trimethylphenoxy}acetic acid] | 1 nM | A (5<(TRα/TRβ)) |
| Cc1cc(OCC(=O)O)c(C)c(C)c1Cc1ccc(O)c(-c2cccc(F)c2)n1 [Example 171, {4-[6-(3-fluoro-phenyl)-5-hydroxy-pyridin-2-ylmethyl]-2,3,5-trimethyl-phenoxy}acetic acid] | 2 nM | A (5<(TRα/TRβ)) |
| Cc1cc(OCC(=O)O)c(F)c(C)c1Cc1ccc(O)c(C2CCCCC2)n1 [Example 12, {4-[(6-cyclohexyl-5-hydroxypyridin-2-yl)methyl]-2-fluoro-3,5-dimethylphenoxy}acetic acid] | 0.7 nM | B (2<(TRα/TRβ)<5) |
| Cc1cc(NC(=O)CC(=O)O)cc(C)c1Cc1ccc(O)c(C2CCCCCC2)n1 [Example 52, 3-({4-[(6-cycloheptyl-5-hydroxypyridin-2-yl)methyl]-3,5-dimethylphenyl}amino)-3-oxopropanoic acid] | 6 nM | A (5<(TRα/TRβ)) |
| Cc1cc(OCc2noc(=O)[nH]2)c(C)c(C)c1Cc1ccc(O)c(C2CCCO2)n1 (stereo not drawn) [Example 33, 3-[(4-{[5-hydroxy-6-(tetrahydrofuran-2-yl)pyridin-2-yl]methyl}-2,3,5-trimethylphenoxy)methyl]-1,2,4-oxadiazol-5(4H)-one] | 8 nM | B (2<(TRα/TRβ)<5) |
| Cc1cc(OCc2noc(=O)[nH]2)c2c(c1Cc1ccc(O)c(C3CCCCC3)n1)CCO2 [Example 117, 3-[({4-[(6-cyclohexyl-5-hydroxypyridin-2-yl)methyl]-5-methyl-2,3-dihydro-1-benzofuran-7-yl}oxy)methyl]-1,2,4-oxadiazol-5(4H)-one] | 2 nM | B (2<(TRα/TRβ)<5) |
| Cc1cc(OCc2noc(=O)[nH]2)c(C)c(C)c1Cc1ccc(O)c(C(C)C)n1 [Example 31, 3-({4-[(5-hydroxy-6-isopropylpyridin-2-yl)methyl]-2,3,5-trimethylphenoxy}methyl)-1,2,4-oxadiazol-5(4H)-one] | 0.2 nM | B (2<(TRα/TRβ)<5) |

From patent US8791266B2, “Thyroid hormone β receptor agonist” (Mitsubishi Tanabe Pharma Corporation, priority 2009, dated 2014)
